Values of other authors, collected in PMC7489895 (Biochemical Journal, 2020).

Assays:
human skeletal muscle = conditions: ref Ahn et al. [30]
MondoA = conditions: skeletal myoblasts, in response to insulin; ref Ahn et al. [30]
importin α = importin α (Mus musculus, UniProt P52293); conditions: read-out: KD, NLS - importin α

| Molecule | effect on intramuscular lipid accumulation (human skeletal muscle) | effect on nuclear localization of MondoA (MondoA) | Kd (importin α) [µM] |
| --- | --- | --- | --- |
| COc1ccc(-c2csc(NC(=O)c3ccc(OCC(=O)N4CCOCC4)c(OC)c3)n2)cc1 [SBI-477] | inhibits intramuscular lipid accumulation | inhibits the nuclear localization of Mondo A |  |
| K^155RPAATKKAGQAKKKK^170 (KRPAATKKAGQAKKKK; NLS; UniProt P05221 155-170, looked up, fragment) [Nucleoplasmin] |  |  | 0.19 ± 0.02 |
| P^126KKKRKV^132 [SV40] |  |  | 0.31 ± 0.15 |
| R^617KCYEAGMTLGARKLKKL^634 |  |  | 5 ± 0.1 |
